≈ marks a conversion by molar mass, not a printed value. Calls of active or inactive are those of the source. No cut-off for these calls is given here.

Experimental findings from ChEMBL document CHEMBL1153834, “Orally administered combined regimens for treatment of Mycobacterium ulcerans infection in mice” (2007) are described below.

For test [1], the system named is Mycobacterium ulcerans. The experiment in a line: Antimycobacterial activity against Mycobacterium ulcerans isolate CU001 infected in BALB/c mouse left hind foot-pad assessed as bacterial load at 100 mg/kg, po administered for 5 days per week measured after 4 weeks. The test is classed as functional.
Test [2] deals with Mycobacterium ulcerans. The experiment in a line: Antimycobacterial activity against Mycobacterium ulcerans isolate CU001 infected in BALB/c mouse left hind foot-pad assessed as incidence of bacterial infection at 100 mg/kg, po administered for 5 days per week measured after 8 weeks. Set-up: dose 100 mg/kg. The test is classed as functional, organism-based.
In test [3] the test system is Mycobacterium ulcerans. Briefly: Antimycobacterial activity against Mycobacterium ulcerans isolate CU001 infected in BALB/c mouse left hind foot-pad assessed as bacterial load at 100 mg/kg, po administered for 5 days per week measured after 8 weeks. It counts as functional.
Test [4] deals with Mycobacterium ulcerans. Briefly: Antimycobacterial activity against Mycobacterium ulcerans isolate CU001 infected in BALB/c mouse left hind foot-pad assessed as bacterial load per culture-positive foot-pad at 100 mg/kg, po administered for 5 days per week measured after 4 weeks. The test is classed as functional.
Test [5] concerns Mycobacterium ulcerans. The experiment in a line: Antimycobacterial activity against Mycobacterium ulcerans isolate CU001. The test is classed as functional.
Test [6] deals with Mycobacterium ulcerans. Briefly: Antimycobacterial activity against Mycobacterium ulcerans isolate CU001 infected in BALB/c mouse left hind foot-pad assessed as bacterial load per culture-positive foot-pad at 10 mg/kg, po administered for 5 days per week measured after 8 weeks. It counts as functional.
Test [7] relates to Mycobacterium ulcerans. The experiment in a line: Antimycobacterial activity against Mycobacterium ulcerans isolate CU001 infected in BALB/c mouse left hind foot-pad assessed as bacterial load at 10 mg/kg, po administered for 5 days per week measured after 4 weeks. The test is classed as functional.
For test [8], the system named is Mycobacterium ulcerans. The experiment in a line: Antimycobacterial activity against Mycobacterium ulcerans isolate CU001 infected in BALB/c mouse left hind foot-pad assessed as bacterial load at 10 mg/kg, po administered for 5 days per week measured after 8 weeks. Set-up: dose 10 mg/kg. It counts as functional, organism-based.
Test [9] deals with Mycobacterium ulcerans. Briefly: Antimycobacterial activity against Mycobacterium ulcerans isolate CU001 infected in BALB/c mouse left hind foot-pad assessed as bacterial load per culture-positive foot-pad at 10 mg/kg, po administered for 5 days per week measured after 4 weeks. The test is classed as functional.
For test [10], the system named is Mycobacterium ulcerans. The experiment in a line: Antimycobacterial activity against Mycobacterium ulcerans isolate CU001 infected in BALB/c mouse left hind foot-pad assessed as incidence of bacterial infection at 10 mg/kg, po administered for 5 days per week measured after 8 weeks. The test is classed as functional, organism-based. On the set-up: dose 10 mg/kg.

Usually MIC stands for the least concentration at which growth counts as inhibited. Low values mean greater potency, high ones weaker potency. `CC[C@H]1OC(=O)[C@H](C)[C@@H](O[C@H]2C[C@@](C)(OC)[C@@H](O)[C@H](C)O2)[C@H](C)[C@@H](O[C@@H]2O[C@H](C)C[C@H](N(C)C)[C@H]2O)[C@](C)(OC)C[C@@H](C)C(=O)[C@H](C)[C@@H](O)[C@]1(C)O` [CLARITHROMYCIN]: the log10cfu is 2.53 with Mycobacterium ulcerans [1], 1.25 with Mycobacterium ulcerans [3] and 3.43 with Mycobacterium ulcerans [4]. Moreover, the outcome with Mycobacterium ulcerans [2] was Active. Further, inhibition of growth against Mycobacterium ulcerans [5] (MIC) required 0.5 µg/mL (≈ 0.668 µM).
`COc1c(N2C[C@@H]3CCCN[C@@H]3C2)c(F)cc2c(=O)c(C(=O)O)cn(C3CC3)c12` [MOXIFLOXACIN]: the log10cfu in the test on Mycobacterium ulcerans [1] came to 2.99; with Mycobacterium ulcerans [3] it was 1.25; with Mycobacterium ulcerans [4] it was 3.23; in the test with Mycobacterium ulcerans [6] it was 1.72. In the test with Mycobacterium ulcerans [5], this compound showed an MIC of 0.25 µg/mL (≈ 0.623 µM).
Turning to `CO[C@H]1/C=C/O[C@@]2(C)Oc3c(C)c(O)c4c(O)c(c(/C=N/N5CCN(C)CC5)c(O)c4c3C2=O)NC(=O)/C(C)=C\C=C\[C@H](C)[C@H](O)[C@@H](C)[C@@H](O)[C@@H](C)[C@H](OC(C)=O)[C@@H]1C` [RIFAMPIN], the log10cfu is listed as 0.46 with Mycobacterium ulcerans [7] and 1.52 in the test with Mycobacterium ulcerans [9]. Besides, the result in the test with Mycobacterium ulcerans [8] and in the test on Mycobacterium ulcerans [10] was Active. Besides, the MIC in the test on Mycobacterium ulcerans [5] stood at 2 µg/mL (≈ 2.43 µM).
`CN[C@@H]1[C@H](O[C@H]2[C@H](O[C@H]3[C@H](O)[C@@H](O)[C@H](N=C(N)N)[C@@H](O)[C@@H]3N=C(N)N)O[C@@H](C)[C@]2(O)C=O)O[C@@H](CO)[C@H](O)[C@H]1O` [STREPTOMYCIN] yielded an MIC against Mycobacterium ulcerans [5] of 0.5 µg/mL (≈ 0.86 µM).
